Reference: article PMC7380166, “How to Study the Metabolism of New Psychoactive Substances for the Purpose of Toxicological Screenings—A Follow-Up Study Comparing Pooled Human Liver S9, HepaRG Cells, and Zebrafish Larvae” (Frontiers in Chemistry, 2020)
Where two headings read alike, the source gives them in different places.

Tests used:
zebrafish larvae = test: Zebrafish larvae exposure, metabolite identification by LC-HRMS/MS; details: larvae 4 dpf, 24 h, larvae extract, one replicate of n = 3, n.d. = not detected; for Absolute peak area, Zebrafish larvae [25 μM]: 25 μM 4F-MDMB-BINACA in medium; for Absolute peak area, Zebrafish larvae [100 µM]: 100 µM parent NPS in medium
HepaRG cells = test: Incubations with HepaRG cells, metabolite identification by LC-HRMS/MS; format: in vitro ADME, human; details: 24 h, cell culture medium, one replicate of n = 3, n.d. = not detected; for Absolute peak area, HepaRG [25 μM]: 25 μM parent NPS; for Absolute peak area, HepaRG [250 μM]: 250 μM parent NPS
[1] = n = 2, according to literature, cited from earlier work
[2] = ephylone and metabolites, ref Wagmann et al., 2019a
[3] = 1P-LSD and metabolites, ref Wagmann et al., 2019b
[4] = 3,4-DMA-NBOMe and metabolites, ref Caspar et al., 2018
[5] = 4F-PHP and metabolites, ref Wagmann et al., 2019a

Row | Compound | Absolute peak area, HepaRG [25 μM] (HepaRG cells) | Absolute peak area, HepaRG [250 μM] (HepaRG cells) | Absolute peak area, Zebrafish larvae [100 µM] (zebrafish larvae) | other results
1 | CC1(C)COC(=O)[C@H]1NC(=O)c1n[nH]c2ccccc12 [MB2] |  |  |  | Absolute peak area, Zebrafish larvae [25 μM] (zebrafish larvae): 5.13E+05
2 | CC(C)(C)[C@H](NC(=O)c1nn(CCCC(=O)O)c2ccccc12)C(=O)O [MB10] | 1.68E+05 | 8.32E+05 |  | Absolute peak area, Zebrafish larvae [25 μM] (zebrafish larvae): 5.72E+04
3 | CC1(CO)COC(=O)[C@H]1NC(=O)c1nn(CCCCF)c2ccccc12 (stereo partly shown) [MB12] |  |  |  | Absolute peak area, Zebrafish larvae [25 μM] (zebrafish larvae): 1.68E+06
4 | CC(C)(C)[C@H](NC(=O)c1nn(CCCCF)c2ccccc12)C(=O)O[C@@H]1O[C@H](C(=O)O)[C@@H](O)[C@H](O)[C@H]1O [MB22] | 2.56E+07 | 3.25E+07 |  | 
5 | COC(=O)C(NC(=O)c1nn(CCCC(=O)OC2OC(C(=O)O)C(O)C(O)C2O)c2ccccc12)C(C)(C)C (stereo not shown) [MB24] |  |  |  | Absolute peak area, Zebrafish larvae [25 μM] (zebrafish larvae): 2.34E+05
6 | COC(=O)C(NC(=O)c1nn(CCCCF)c2ccccc12)C(C)(C)COC1OC(C(=O)O)C(O)C(O)C1O (stereo not shown) [MB25] |  |  |  | Absolute peak area, Zebrafish larvae [25 μM] (zebrafish larvae): 1.75E+07
7 | CCCC(NCC)C(O)c1ccc2c(c1)OCO2 (stereo not shown) [ME5] |  |  | 7.64E+06 | Detection in pHLS9 [25 µM] [1, 2]: +
8 | CCCC(C(=O)c1ccc2c(c1)OCO2)N(O)CC (stereo not shown) [ME7] |  | 1.75E+06 | 1.10E+06 | Detection in pHLS9 [25 µM] [1, 2]: +
9 | CN1C[C@H](C(N)=O)C=C2c3cccc4[nH]cc(c34)C[C@H]21 [ML1] |  | 1.93E+06 |  | 
10 | CN1C[C@H](C(=O)O)C=C2c3cccc4[nH]cc(c34)C[C@H]21 [ML2] | 5.16E+06 | 1.39E+07 | 3.63E+05 | 
11 | CCNC(=O)[C@@H]1C=C2c3cccc4[nH]cc(c34)C[C@H]2NC1 [ML3] | 3.89E+05 | 2.20E+06 | 3.30E+05 | 
12 | CCNC(=O)[C@@H]1C=C2c3cccc4[nH]cc(c34)C[C@H]2N(C)C1 [ML4] | 3.19E+07 | 2.58E+08 | 6.17E+07 | Detection in pHLS9 [25 µM] [1, 3]: +
13 | CCN(CC)C(=O)[C@@H]1C=C2c3cccc4[nH]cc(c34)C[C@H]2NC1 [ML5] | 1.75E+07 | 3.37E+07 | 1.07E+07 | Detection in pHLS9 [25 µM] [1, 3]: +
14 | CCC(=O)n1cc2c3c(cccc31)C1=C[C@@H](C(=O)O)CN(C)[C@@H]1C2 [ML8] |  |  | 1.07E+06 | 
15 | CCN(CC)C(=O)C1C=C2c3cccc4[nH]cc(c34)C(O)C2NC1 (stereo not shown) [ML10] |  |  | 6.10E+04 | 
16 | CCNC(=O)[C@@H]1C=C2c3cccc4c3c(cn4C(=O)CC)C[C@H]2NC1 [ML12] |  |  | 4.11E+05 | 
17 | CCN(CCO)C(=O)C1C=C2c3cccc4[nH]cc(c34)CC2N(C)C1 (stereo not shown) [ML14] | 4.01E+05 | 4.63E+06 | 3.90E+06 | 
18 | CCNC(=O)[C@@H]1C=C2c3cccc4c3c(cn4C(=O)CC)C[C@H]2N(C)C1 [ML17] |  |  | 1.48E+08 | Detection in pHLS9 [25 µM] [1, 3]: +
19 | CCN(CC)C(=O)[C@@H]1C=C2c3cccc4c3C(O)(C[C@H]2N(C)C1)C(=O)N4 (stereo partly shown) [ML18, 2−oxo−3−hydroxy LSD] | 7.00E+06 | 3.67E+06 | 6.93E+06 | Detection in pHLS9 [25 µM] [1, 3]: +

Row | Compound | Absolute peak area, HepaRG [25 μM] (HepaRG cells) | Absolute peak area, HepaRG [250 μM] (HepaRG cells) | Absolute peak area, Zebrafish larvae [100 µM] (zebrafish larvae) | other results
20 | CCC(=O)n1cc2c3c(cccc31)C1=C[C@@H](C(=O)N(CC)CC)CN[C@@H]1C2 [ML20] | 3.19E+04 | 3.74E+06 | 3.77E+07 | Detection in pHLS9 [25 µM] [1, 3]: +
21 | CCC(=O)n1cc2c3c(cccc31)C1=C[C@@H](C(=O)N(CC)CCO)CN(C)[C@@H]1C2 [ML23] |  |  | 3.31E+07 | 
22 | CCC(=O)n1cc2c3c(cccc31)C1=C[C@@H](C(=O)N(CC)CC)CN(C)[C@@H]1C2O (stereo partly shown) [ML24] |  |  | 3.37E+07 | 
23 | CCN(CCOC1OC(C(=O)O)C(O)C(O)C1O)C(=O)C1C=C2c3cccc4[nH]cc(c34)CC2N(C)C1 (stereo not shown) [ML28] |  | 1.07E+05 |  | 
24 | COc1ccc(CC(C)N)cc1OC (stereo not shown) [MN1] | 4.04E+07 | 9.84E+07 | 3.29E+07 | Detection in pHLS9 [25 µM] [1, 4]: +
25 | COc1ccccc1CNC(C)Cc1ccc(O)c(O)c1 (stereo not shown) [MN2] |  |  |  | Detection in pHLS9 [25 µM] [1, 4]: +
26 | COc1ccc(CC(C)NCc2ccccc2O)cc1OC (stereo not shown) [MN7] | 1.19E+07 | 1.17E+08 | 1.19E+08 | Detection in pHLS9 [25 µM] [1, 4]: +
27 | COc1ccc(CC(C)N(O)Cc2ccccc2O)cc1OC (stereo not shown) [MN9] |  |  | 3.57E+05 | 
28 | COc1ccccc1CN(O)C(C)Cc1ccc(OC)c(OC)c1 (stereo not shown) [MN12] |  | 4.60E+05 | 8.81E+06 | 
29 | COc1ccc(CC(C)NCc2ccccc2O[C@@H]2O[C@H](C(=O)O)[C@@H](O)[C@H](O)[C@H]2O)cc1OC (stereo partly shown) [MN22] |  |  |  | Detection in pHLS9 [25 µM] [1, 4]: +
30 | CCCCC(N)C(=O)c1ccc(F)cc1 (stereo not shown) [MP1] | 1.48E+05 | 1.82E+06 | 4.83E+05 | Detection in pHLS9 [25 µM] [1, 5]: +
31 | CCCCC(C(O)c1ccc(F)cc1)N1CCCC1 (stereo not shown) [MP2] | 1.18E+07 | 6.41E+07 | 2.98E+07 | Detection in pHLS9 [25 µM] [1, 5]: +
32 | CCCCC(C(=O)c1ccc(F)cc1)N1CCC(=O)C1 (stereo not shown) [MP3] |  |  | 7.58E+04 | 
33 | CCCCC(C(=O)c1ccc(F)cc1)N1CCCC1=O (stereo not shown) [MP4] |  |  | 8.64E+05 | Detection in pHLS9 [25 µM] [1, 5]: +
34 | CC(O)CCC(C(=O)c1ccc(F)cc1)N1CCCC1 (stereo not shown) [MP5] | 1.14E+06 | 1.07E+07 | 7.71E+06 | Detection in pHLS9 [25 µM] [1, 5]: +
35 | CCCCC(C(=O)c1ccc(F)cc1)[N+]1([O-])CCCC1 (stereo not shown) [MP8] |  | 1.47E+05 | 2.50E+06 | 
36 | CC(O)CCC(C(O)c1ccc(F)cc1)N1CCCC1 (stereo not shown) [MP9] | 8.15E+05 | 6.48E+06 | 3.78E+07 | 
37 | CCCCC(C(O[C@@H]1O[C@H](C(=O)O)[C@@H](O)[C@H](O)[C@H]1O)c1ccc(F)cc1)N1CCCC1 (stereo partly shown) [MP10] |  | 2.91E+04 |  | Detection in pHLS9 [25 µM] [1, 5]: +
38 | CC(CCC(C(=O)c1ccc(F)cc1)N1CCCC1)OC1OC(C(=O)O)C(O)C(O)C1O (stereo not shown) [MP11] |  |  | 1.15E+06 | Detection in pHLS9 [25 µM] [1, 5]: +
